Measured values reported in patent US20160221974A1, “SODIUM CHANNEL MODULATORS FOR THE TREATMENT OF PAIN AND DIABETES” (CHROMOCELL CORPORATION, priority 2013, published 2016).

Tests used:
hNaV1.7 = target: T1, hNaV1.7 (Homo sapiens, UniProt Q15858); assay: FDSS Membrane Potential In-Vitro Assay; type: cell-based; conditions: stimulation with veratridine and scorpion venom, read-out: NaV1.7 IC50
T1 construct: expressed in transfected cells

NaV1.7 = target: T2, NaV1.7 (Homo sapiens, UniProt Q15858); assay: Patchliner Electrophysiological In-Vitro Assay (NaV1.7); type: cell-based; conditions: Patchliner patch clamp, HEK293, holding at V1/2
T2 construct: expressed in transfected cells
Method: In vitro assays were performed in recombinant cell line that stably express a heterotrimeric protein of interest from an introduced nucleic acid encoding the alpha subunit (hNav1.7, SCN9A), the beta subunit (SCNB1) and the beta subunit (SCNB2). The cell line was engineered using Human Embryonic Kidney 293 cells as host background. Additional cell lines stably expressing recombinant Nav1.7 or Nav1.5 alpha subunit alone or in combination with various beta subunits can also be used in in-vitro assays.
(§1) The recording of sodium current from stable HEK293 cell lines expressing NaV1.7 or NaV1.5 was done on a Patchliner® instrument, Nanion Technologies. The Patchliner® is a fully automated bench-top patch clamp platform and can record simultaneously from up to eight single cells with GΩ seals.
(§2) For patch-clamp experiments, cells were grown under standard culturing conditions in Dulbecco's Modified Eagles medium supplemented with 10% fetal bovine serum, glutamine and HEPES. Cells were harvested and kept in suspension for up to 4 hours with no significant change in quality or ability to patch. Whole cell patch clamp recordings were conducted according to Nanion's standard procedure for the Patchliner®. Experiments were conducted at room temperature.
(§3) Voltage protocols were designed to establish: 1) peak current amplitude (Imax), 2) test potential (Vmax) and 3) half-inactivation potential (V1/2) for each of the eight individual cells. To determine V1/2, a standard steady-state inactivation protocol was executed using a series of fifteen 500 ms depolarizing pre-pulses in 10 mV increments (starting at −130 mV) and immediately followed by a 10 ms test pulse to Vmax. To estimate test compound affinity to the inactivated state of sodium channel (Ki), the holding potential for each cell was set automatically to the V1/2 calculated from a steady-state inactivation data. The current was activated with the following voltage protocol: holding at V1/2 for 2-5 seconds, return to the −120 mV for 5-10 ms to relieve fast inactivation, stepping to test potential (Vmax) for 10-20 ms. This voltage protocol was repeated every 10 seconds to establish the baseline with 2-3 buffer additions followed by the test compound addition. The dose-dependent inhibition was analyzed using Nanion's Data Analysis Package.

CYP3A4 = target: T3, CYP3A4 (Homo sapiens, UniProt P08684); assay: In-Vitro Cytochrome P450 (CYP450) Inhibition Assay (Vivid CYP450); type: in vitro ADME; conditions: CYP3A4 enzyme complex (Vivid CYP450, Invitrogen), 6 μM test concentration
T3 construct: purchased Invitrogen
Method: We evaluated interaction of drug candidates with cytochrome P450 enzymes which are a major determinant of drug clearance via oxidative metabolism using a high throughput compatible, fluorescence based CYP450 screening assay (Vivid® CYP450, Invitrogen) according to manufacturer's directions.
In brief, test compounds at four different concentrations (μM—6.0, 2.0, 0.7, 0.2), a positive control (Ketoconazole) and a solvent control were incubated at room temperature in unique wells of a 96-well microtiter plate with CYP3A4 enzyme complex for 20 minutes. A pre-read fluorescence (Ex−485 nm/Em−530 nm) was measured at the start of the incubation using a Tecan Safire^2 microplate reader-monochromator to determine background fluorescence. At the end of the incubation period, enzyme substrate and co-enzyme were added and the reaction was kinetically monitored for 1 hour by measuring fluorescence every minute. Effect of test compounds on inhibition of CYP3A4 metabolism of provided substrate was determined by calculating the ratio of the effective reaction rate in presence of test compound to that in the absence of inhibitor.

[1] = test system: Formalin Test (pain behaviors); assay: Formalin Test (pain behaviors); type: in vivo, rat; conditions: relative to vehicle control
[2] = test system: Partial Sciatic Nerve Ligation (PSNL) model; assay: Partial Sciatic Nerve Ligation (PSNL) model, behavioral tests; type: in vivo, male Sprague-Dawley rats
From the text: 250-350 g male Sprague-Dawley rats from appropriate animal resources were anesthetized with 2.5% isoflurane. A hind leg was shaved, and the skin was sterilized with 0.5% iodine and 75% alcohol. All surgical instruments were sterilized before surgery and between animals. An incision (1 cm) was made at the middle of the thigh in parallel with the muscle and sciatic nerve distribution. The muscle was exposed and dissected at the joint of two muscles (biceps femoris) indicated by the light colored (white) fascia line. The sciatic nerve was just beneath the muscle and was hooked out using an 18-20 G feeding needle (90 degree curved); the sciatic nerve was flat on the feeding needle and approximately one-half the diameter of the nerve is tightly ligated with 7-0 silk suture. A response of the injured leg twitch indicates the success of ligation. After checking hemostasis, bupivicaine 0.1-0.2 ml (0.125%) was given at the incision area, the muscle and the adjacent fascia are closed with 5-0 absorbable sutures. The skin was sutured with absorbable suture and tissue glue. The control group using sham surgery animals (about 8-10 animals) underwent the same surgical procedure but with no nerve ligation. Animals were returned to their home cage after recovery from anesthesia.
The analgesic effect of the test compound was expressed as a percent recovery (% Recovery) relative to the sham control group baseline and calculated according to the formula:
% Recovery=100%−{[(sham mean−test compound mean)/(sham mean−vehicle mean)]×100%}
wherein “sham mean” refers to average score in the sham-operated group; “test compound mean” refers to average score in the PSNL-group (animals with partial sciatic nerve ligation) or diabetic group (animals treated with STZ) treated with a test compound; “vehicle mean” refers to average score in the PSNL-group or diabetic group treated with vehicle only. The above formula was used to obtain data for the following in vivo behavioral tests.
The following behavioral tests were conducted (i.e., plantar test, paw pressure test, and von Frey test) started on day 3 and thereafter once weekly following surgery or use of a diabetic inducer. […]
(§4) Rats were placed on the glass surface of a thermal testing apparatus (Model 336, IITC/Life Science Instruments, Woodland Hills, Calif.) and were allowed to acclimate for 10 min before testing on the glass surface at room temperature. […] The paw withdrawal latency was recorded by a digital timer. The thermal threshold was determined as the mean withdrawal latency from two to three consecutive trials of both hindpaws. […]
Animals were placed under clear plastic boxes above a wire mesh floor, which allowed full access to the paws. […] Mechanical paw withdrawal thresholds (PWTs) were measured with the up-down testing paradigm. […]

[3] = test system: streptozotocin (STZ)-induced diabetic model; assay: Streptozotocin (STZ)-Induced Model of Diabetic Neuropathy, behavioral tests; type: in vivo, male Sprague-Dawley rats; conditions: 30 mg/kg, measured 30 minutes post dose
Method: 250-350 g male Sprague-Dawley rats from appropriate animal resources were used. Type I diabetes was induced by a single injection, (intraperitoneally, intravenously or intramuscularly) of 50-100 mg/kg of streptozotocin (STZ, Sigma Chemicals, St. Louis, Mo. or VWR) freshly dissolved in sodium citrate (0.01 M, pH 4.5). Sham animals were given either saline or same vehicle injection. Following a wait time of about two days, inducement of diabetes was confirmed in STZ-injected rats by measuring the plasma glucose concentrations in blood samples from the tail vein after a fast of 6 hours. […] Other parameters (water intake, food intake, and bodyweight) were monitored before the treatment with a test compound and after the cessation of the treatment.
The analgesic effect of the test compound was expressed as a percent recovery (% Recovery) relative to the sham control group baseline and calculated according to the formula: […]
as §4

NaV1.5 = target: T4, NaV1.5 (Homo sapiens, UniProt Q14524); assay: Patchliner Electrophysiological In-Vitro Assay (NaV1.5); type: cell-based; conditions: Patchliner patch clamp, HEK293
T4 construct: expressed in transfected cells
Method: as §1, §2, §3

[4] = 150 μL of 1 or 2% w/v solution, topical route

T3 sequence (P08684 2-503 limits assumed): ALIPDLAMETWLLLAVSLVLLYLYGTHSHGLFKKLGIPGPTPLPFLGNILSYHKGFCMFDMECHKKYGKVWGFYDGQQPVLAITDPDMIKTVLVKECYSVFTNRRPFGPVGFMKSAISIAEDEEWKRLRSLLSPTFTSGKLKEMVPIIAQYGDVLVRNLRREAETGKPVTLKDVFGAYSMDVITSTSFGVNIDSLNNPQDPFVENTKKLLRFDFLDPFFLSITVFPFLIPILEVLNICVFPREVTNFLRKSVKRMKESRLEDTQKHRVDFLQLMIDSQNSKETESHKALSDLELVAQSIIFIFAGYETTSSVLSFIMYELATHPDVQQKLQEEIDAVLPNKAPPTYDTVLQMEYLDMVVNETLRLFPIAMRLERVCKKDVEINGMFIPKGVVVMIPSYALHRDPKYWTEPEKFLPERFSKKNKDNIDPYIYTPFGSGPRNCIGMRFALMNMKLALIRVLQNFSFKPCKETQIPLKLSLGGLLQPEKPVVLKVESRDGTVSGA
T1 sequence (Q15858 whole entry): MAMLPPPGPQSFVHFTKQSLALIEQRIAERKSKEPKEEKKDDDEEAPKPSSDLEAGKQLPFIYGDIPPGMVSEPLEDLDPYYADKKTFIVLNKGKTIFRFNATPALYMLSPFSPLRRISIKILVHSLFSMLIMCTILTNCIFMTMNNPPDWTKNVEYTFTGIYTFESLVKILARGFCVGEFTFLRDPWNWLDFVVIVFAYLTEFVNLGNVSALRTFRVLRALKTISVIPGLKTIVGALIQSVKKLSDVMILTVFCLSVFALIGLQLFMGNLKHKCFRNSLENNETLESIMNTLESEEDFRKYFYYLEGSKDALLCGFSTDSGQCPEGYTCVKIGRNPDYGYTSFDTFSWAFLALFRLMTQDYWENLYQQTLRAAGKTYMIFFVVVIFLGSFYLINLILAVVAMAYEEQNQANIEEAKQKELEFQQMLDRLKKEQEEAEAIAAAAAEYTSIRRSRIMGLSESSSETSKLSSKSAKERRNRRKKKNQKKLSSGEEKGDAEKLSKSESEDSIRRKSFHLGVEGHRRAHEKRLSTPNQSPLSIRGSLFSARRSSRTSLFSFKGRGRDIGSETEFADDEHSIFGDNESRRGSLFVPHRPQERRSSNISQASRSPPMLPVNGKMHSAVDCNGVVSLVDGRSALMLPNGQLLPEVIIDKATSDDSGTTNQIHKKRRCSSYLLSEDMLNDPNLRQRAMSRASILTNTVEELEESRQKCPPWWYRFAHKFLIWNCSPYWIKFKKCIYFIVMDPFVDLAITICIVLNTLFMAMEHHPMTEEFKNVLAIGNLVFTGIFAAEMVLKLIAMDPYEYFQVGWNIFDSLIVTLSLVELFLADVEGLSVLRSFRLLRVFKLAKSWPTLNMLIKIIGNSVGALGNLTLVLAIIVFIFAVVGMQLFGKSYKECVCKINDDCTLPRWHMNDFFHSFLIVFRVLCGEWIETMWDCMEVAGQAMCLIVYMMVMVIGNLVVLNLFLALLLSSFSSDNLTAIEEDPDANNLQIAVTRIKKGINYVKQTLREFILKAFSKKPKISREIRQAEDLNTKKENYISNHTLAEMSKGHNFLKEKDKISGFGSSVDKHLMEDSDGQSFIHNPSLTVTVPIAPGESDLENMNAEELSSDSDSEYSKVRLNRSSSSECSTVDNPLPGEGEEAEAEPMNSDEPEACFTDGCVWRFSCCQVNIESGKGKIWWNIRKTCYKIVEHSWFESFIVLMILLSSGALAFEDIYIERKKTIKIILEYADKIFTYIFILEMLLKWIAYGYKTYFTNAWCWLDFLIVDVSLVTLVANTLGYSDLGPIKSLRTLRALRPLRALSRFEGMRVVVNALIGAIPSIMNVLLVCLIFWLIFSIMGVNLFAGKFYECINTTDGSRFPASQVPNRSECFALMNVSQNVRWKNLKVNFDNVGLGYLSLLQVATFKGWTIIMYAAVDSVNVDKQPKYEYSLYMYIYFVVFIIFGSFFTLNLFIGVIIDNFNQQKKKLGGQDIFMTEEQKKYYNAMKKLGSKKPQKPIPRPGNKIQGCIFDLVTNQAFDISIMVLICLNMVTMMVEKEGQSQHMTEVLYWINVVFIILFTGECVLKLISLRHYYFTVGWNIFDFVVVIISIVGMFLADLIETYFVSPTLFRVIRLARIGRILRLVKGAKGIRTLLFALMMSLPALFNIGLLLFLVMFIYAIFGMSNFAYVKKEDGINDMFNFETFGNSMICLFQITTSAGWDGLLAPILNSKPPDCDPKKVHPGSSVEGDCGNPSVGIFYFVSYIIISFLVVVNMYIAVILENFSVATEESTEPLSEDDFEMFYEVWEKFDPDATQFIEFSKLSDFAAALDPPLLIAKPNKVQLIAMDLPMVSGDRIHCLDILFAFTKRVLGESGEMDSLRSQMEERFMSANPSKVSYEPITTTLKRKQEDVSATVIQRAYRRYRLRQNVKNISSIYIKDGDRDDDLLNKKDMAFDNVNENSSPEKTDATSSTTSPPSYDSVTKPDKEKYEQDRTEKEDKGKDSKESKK
T1 sequence (Q07699 19-218 partner): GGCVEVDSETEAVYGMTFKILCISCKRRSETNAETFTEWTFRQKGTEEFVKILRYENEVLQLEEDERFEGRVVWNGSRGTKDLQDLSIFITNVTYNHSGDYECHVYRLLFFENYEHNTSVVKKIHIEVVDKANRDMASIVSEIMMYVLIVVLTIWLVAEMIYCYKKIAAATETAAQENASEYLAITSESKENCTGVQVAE
T1 sequence (O60939 30-215 partner): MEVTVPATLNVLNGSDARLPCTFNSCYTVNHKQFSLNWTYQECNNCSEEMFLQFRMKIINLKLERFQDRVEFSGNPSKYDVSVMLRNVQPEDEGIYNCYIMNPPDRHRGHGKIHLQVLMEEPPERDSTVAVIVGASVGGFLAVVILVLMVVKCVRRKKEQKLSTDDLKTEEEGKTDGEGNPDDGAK
T2 sequence (Q15858 whole entry): as the sequence (Q15858 whole entry) above
T2 sequence (Q07699 19-218 partner): as the sequence (Q07699 19-218 partner) above
T2 sequence (O60939 30-215 partner): as the sequence (O60939 30-215 partner) above
T4 sequence (Q14524 whole entry): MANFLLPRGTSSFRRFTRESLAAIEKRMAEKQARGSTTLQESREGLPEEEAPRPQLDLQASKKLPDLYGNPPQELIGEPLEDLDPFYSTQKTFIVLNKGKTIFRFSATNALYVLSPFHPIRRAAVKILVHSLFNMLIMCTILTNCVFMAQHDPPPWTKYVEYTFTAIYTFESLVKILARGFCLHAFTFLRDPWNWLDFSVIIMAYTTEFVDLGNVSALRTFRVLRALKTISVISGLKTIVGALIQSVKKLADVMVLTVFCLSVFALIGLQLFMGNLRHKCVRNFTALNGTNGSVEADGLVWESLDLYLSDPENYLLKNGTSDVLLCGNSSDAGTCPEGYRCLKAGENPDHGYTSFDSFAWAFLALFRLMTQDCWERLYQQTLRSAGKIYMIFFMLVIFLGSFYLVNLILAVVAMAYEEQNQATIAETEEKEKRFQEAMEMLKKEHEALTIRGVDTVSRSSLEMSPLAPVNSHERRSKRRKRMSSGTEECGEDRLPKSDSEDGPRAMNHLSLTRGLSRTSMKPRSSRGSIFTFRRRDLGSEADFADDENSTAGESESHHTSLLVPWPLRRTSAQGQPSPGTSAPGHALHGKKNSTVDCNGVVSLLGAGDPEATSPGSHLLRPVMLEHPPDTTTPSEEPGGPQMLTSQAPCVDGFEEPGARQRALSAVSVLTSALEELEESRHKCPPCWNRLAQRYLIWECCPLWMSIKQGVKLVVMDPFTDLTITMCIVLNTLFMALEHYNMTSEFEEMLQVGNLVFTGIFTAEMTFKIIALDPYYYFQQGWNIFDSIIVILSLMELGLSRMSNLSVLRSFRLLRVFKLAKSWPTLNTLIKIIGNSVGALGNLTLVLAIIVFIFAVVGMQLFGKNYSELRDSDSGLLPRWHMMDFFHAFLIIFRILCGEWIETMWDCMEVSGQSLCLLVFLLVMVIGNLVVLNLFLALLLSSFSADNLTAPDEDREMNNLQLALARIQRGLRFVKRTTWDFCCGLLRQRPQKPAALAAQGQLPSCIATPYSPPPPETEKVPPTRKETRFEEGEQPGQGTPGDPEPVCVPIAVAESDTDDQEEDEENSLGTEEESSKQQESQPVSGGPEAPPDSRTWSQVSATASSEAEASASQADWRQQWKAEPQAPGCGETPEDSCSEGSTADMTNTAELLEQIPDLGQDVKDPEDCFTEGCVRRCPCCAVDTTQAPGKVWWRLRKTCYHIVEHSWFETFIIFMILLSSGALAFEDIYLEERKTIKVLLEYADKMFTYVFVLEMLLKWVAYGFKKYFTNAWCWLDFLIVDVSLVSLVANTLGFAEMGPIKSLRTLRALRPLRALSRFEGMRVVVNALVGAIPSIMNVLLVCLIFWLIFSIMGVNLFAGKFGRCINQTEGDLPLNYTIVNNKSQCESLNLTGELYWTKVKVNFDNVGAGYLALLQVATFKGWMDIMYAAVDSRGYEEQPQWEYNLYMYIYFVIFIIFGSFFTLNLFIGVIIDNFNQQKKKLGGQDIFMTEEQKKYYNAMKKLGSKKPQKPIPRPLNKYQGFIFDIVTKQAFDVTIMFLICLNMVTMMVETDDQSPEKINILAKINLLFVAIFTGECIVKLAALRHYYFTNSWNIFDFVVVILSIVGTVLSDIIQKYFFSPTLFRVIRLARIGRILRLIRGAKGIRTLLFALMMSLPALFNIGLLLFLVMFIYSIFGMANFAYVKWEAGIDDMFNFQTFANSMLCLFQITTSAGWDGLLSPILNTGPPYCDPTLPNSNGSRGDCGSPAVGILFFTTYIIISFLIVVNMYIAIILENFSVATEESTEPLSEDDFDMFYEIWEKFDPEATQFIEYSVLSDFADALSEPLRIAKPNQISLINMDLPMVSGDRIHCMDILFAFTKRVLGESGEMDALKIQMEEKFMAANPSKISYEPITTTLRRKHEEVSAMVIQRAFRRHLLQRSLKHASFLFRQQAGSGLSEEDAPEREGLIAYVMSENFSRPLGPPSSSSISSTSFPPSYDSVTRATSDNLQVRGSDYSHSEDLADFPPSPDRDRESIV

SMILES	IC50 (hNaV1.7) [nM]	IC50 (NaV1.7) [nM]	inhibition at 1 hour, 6 µM (CYP3A4) [%]	IC50 (NaV1.5) [nM]	other results
O=C(O)CCNC(=O)c1cc(-c2cc(Cl)ccc2Oc2cc(F)c(S(=O)(=O)Nc3ncns3)cc2Cl)ccn1 [Compound 1, 3-(4-(2-(4-(N-(1,2,4-thiadiazol-5-yl)sulfamoyl)-2-chloro-5-fluorophenoxy)-5-chlorophenyl)picolinamido)propanoic acid]	< 130	< 100	50 to 100	–	reduction in pain response (formalin assay phase 2) ([1]; 75 mg/kg, oral route): 17%; reduction in pain response (formalin assay, phase 1) ([1]; 75 mg/kg, oral route): 14%; effect in the tactile allodynia test ([2]; 30 mg/kg intraperitoneal, measured 30-60 minutes post dose): no significant effect
O=C(O)CCNCCCc1cc(Cl)ccc1Oc1cc(F)c(S(=O)(=O)Nc2ncns2)cc1Cl [Compound 12, 3-((3-(2-(4-(N-(1,2,4-thiadiazol-5-yl)sulfamoyl)-2-chloro-5-fluorophenoxy)-5-chlorophenyl)propyl)amino)propanoic acid]	< 130	< 100	50 to 100	–	reduction in pain response (formalin assay phase 2) [1, 4]: 29-43%; reduction in pain response (formalin assay, phase 1) [1, 4]: 13-24%
O=C(O)CCNCCCc1cc(Cl)ccc1Oc1cc(F)c(S(=O)(=O)Nc2cscn2)cc1Cl [Compound 15, 3-((3-(5-chloro-2-(2-chloro-5-fluoro-4-(N-(thiazol-4-yl)sulfamoyl)phenoxy)phenyl)propyl)amino)propanoic acid]	130 to 1000	< 100	0 to 25	–	effect in the tactile allodynia test [3]: no significant effect
O=C(O)C1CCN(CCCc2cc(Cl)ccc2Oc2cc(F)c(S(=O)(=O)Nc3ncns3)cc2Cl)CC1 [Compound 32, 1-(3-(2-(4-(N-(1,2,4-thiadiazol-5-yl)sulfamoyl)-2-chloro-5-fluorophenoxy)-5-chlorophenyl)propyl)piperidine-4-carboxylic acid]	< 130	< 100	50 to 100	–	–
CS(=O)(=O)CCNCCCc1cc(Cl)ccc1Oc1cc(F)c(S(=O)(=O)Nc2cscn2)cc1Cl [Compound 44, 5-chloro-4-(4-chloro-2-(3-((2-(methylsulfonyl)ethyl)amino)propyl)phenoxy)-2-fluoro-N-(thiazol-4-yl)benzenesulfonamide]	–	< 100	–	> 10000	–
C#CCN(CCCc1cc(Cl)ccc1Oc1cc(F)c(S(=O)(=O)Nc2nccs2)cc1Cl)CC(=O)O [Compound 54, 2-((3-(5-chloro-2-(2-chloro-5-fluoro-4-(N-(thiazol-2-yl)sulfamoyl)phenoxy)phenyl)propyl)(prop-2-yn-1-yl)amino)acetic acid]	–	–	–	–	effect in the tactile allodynia test ([2]; oral route, relative to vehicle control, measured 30 minutes post dose): no significant effect
O=S(=O)(Nc1nccs1)c1cc(Cl)c(Oc2ccccc2-c2cnn3c2NCCC3)cc1F [Compound 56, 5-chloro-2-fluoro-4-(2-(4,5,6,7-tetrahydropyrazolo[1,5-a]pyrimidin-3-yl)phenoxy)-N-(thiazol-2-yl)benzenesulfonamide]	500 to 1000	–	–	> 10000	–
O=S(=O)(Nc1cscn1)c1cc(Cl)c(Oc2ccccc2-c2cnn3c2NCCC3)cc1F [Compound 58, 5-chloro-2-fluoro-4-(2-(4,5,6,7-tetrahydropyrazolo[1,5-a]pyrimidin-3-yl)phenoxy)-N-(thiazol-4-yl)benzenesulfonamide]	1000 to 20000	1000 to 10000	–	> 10000	–
